Test results from patent US20070249655A1, “4-Substituted-1,5-Dihydro-Pyrido[3,2-B]Indol-2-Ones” (priority 2004, published 2007).
Where two headings read alike, the source gives them in different places.

Key:
[1] = test system: wild type laboratory HIV strain (HIV-1 strain LAI); test: Antiviral cellular assay (MT4 cells, MTT), wild type; format: cell-based
Procedure: The compounds of the present invention were examined for anti-viral activity in a cellular assay. […] The cellular assay was performed according to the following procedure.
(§1) HIV- or mock-infected MT4 cells were incubated for five days in the presence of various concentrations of the inhibitor. At the end of the incubation period, the replicating virus in the control cultures has killed all HIV-infected cells in the absence of any inhibitor. Cell viability was determined by measuring the concentration of MTT, a yellow, water soluble tetrazolium dye that is converted to a purple, water insoluble formazan in the mitochondrial of living cells only. Upon solubilization of the resulting formazan crystals with isopropanol, the absorbance of the solution was monitored at 540 nm. The values correlate directly to the number of living cells remaining in the culture at the completion of the five day incubation. The inhibitory activity of the compound was monitored on the virus-infected cells and was expressed as EC50 and EC90. These values represent the amount of the compound required to protect 50% and 90%, respectively, of the cells from the cytopathogenic effect of the virus. The toxicity of the compound was measured on the mock-infected cells and was expressed as CC50, which represents the concentration of compound required to inhibit the growth of the cells by 50%. The selectivity index (SI) (ratio CC50/EC50) is an indication of the selectivity of the anti-HIV activity of the inhibitor. Wherever results are reported as e.g. pEC50 or pCC50 values, the result is expressed as the negative logarithm of the result expressed as EC50 or CC50 respectively.

Trypanosoma c. = test: Specificity versus non-viral pathogens: Trypanosoma c.; format: cell-based
HIV-2 = test: Antiviral cellular assay, HIV-2; format: cell-based; details: Human immunodeficiency virus 2; read-out: pEC50 towards HIV-2 (converted)
Procedure: as §1, with “The toxicity of the compound was measured on the mock-infected cells and was expressed as CC50, which represents the concentration of compound required to inhibit the growth of the cells by 50%. The selectivity index (SI) (ratio CC50/EC50) is an indication of the selectivity of the anti-HIV activity of the inhibitor.” left out
(§2) Row WT: pEC50 against wild type HlV-LAI strain. The toxicity (Tox) is expressed as the pCC50 value as determined with mock transfected cells. ND means not determined.

[2] = test system: HIV strain C (L100I; K103N); test: Antiviral cellular assay, mutant strain C; format: cell-based
Procedure: as §1
(§3) Because of the increasing emergence of drug resistant HIV strains, the present compounds were also tested for their potency against clinically isolated HIV strains harbouring several mutations (Tables 1 and 7). These mutations are associated with resistance to reverse transcriptase inhibitors and result in viruses that show various degrees of phenotypic cross-resistance to the currently commercially available drugs such as for instance AZT, didanosine, nevirapine, lamivudine and zalcibatine.

[3] = target: T1, HIV reverse transcriptase (Human immunodeficiency virus type 1 group M subtype B, UniProt P04585); test: In vitro inhibition of HIV reverse transcriptase (kit TRK 1022); format: biochemical; details: enzyme assay, no conversion to active metabolite needed
T1 construct: 5 μl HIV RT enzyme solution at a final enzyme activity of 15 mU per 50 μl reaction; purchased Amersham Life Sciences TRK 1022
Procedure: In vitro Inhibition of HIV Reverse Transcriptase The assay was run using kit TRK 1022 (Amersham Life Sciences) according to the manufacturer's instructions with slight modifications. Compounds were diluted in steps of ¼ in 100% DMSO and subsequently transferred to Medium A (1/50 dilution; medium A: RPMI 1640+10% FetalClone II+Gentamycin 20 mg/L). 25 μl of compound (in 2% DMSO in Medium A) or 25 μl of 2% DMSO in medium A was added to wells. To each well was added 25.5 μl master mix (master mix: 5 μl primer/template beads, 10 μl assay buffer, 0.5 μl tracer (3H-TTP), 5 μl HIV RT enzyme solution at a final enzyme activity of 15 mU per 50 μl reaction, 5 μl medium A). The plates were sealed, marked as radioactive and incubated during 4 hours at 37° C. Subsequently, 100 μl stop solution was added to each well (except R1). The radioactivity was counted in a TopCount.

HIV strain B (K103N) = test: Antiviral cellular assay, mutant strain B; format: cell-based
Procedure: as §1, §3

[4] = test system: HIV strain K (multi-mutant incl. M41L, D67N, K103N, Y181C, L210W, T215Y); test: Antiviral cellular assay, mutant strain K; format: cell-based
Procedure: as §1, §3

Trypanosoma b. = test: Specificity versus non-viral pathogens: Trypanosoma b.; format: cell-based
HIV strain E (F227C) = test: Antiviral cellular assay, mutant strain E; format: cell-based
Procedure: as §1, §3

[5] = test system: HIV strain I (K101E, K103N); test: Antiviral cellular assay, mutant strain I; format: cell-based
Procedure: as §1, §3

[6] = test system: SIV (simian immunodeficiency virus); test: Antiviral cellular assay, SIV; format: cell-based; details: read-out: pEC50 towards SIV (converted)
[7] = test system: HIV strain J (I31L, L100I, K103N, E138G, Y181C, L214F); test: Antiviral cellular assay, mutant strain J; format: cell-based
Procedure: as §1, §3

Plasmodium f. = test: Specificity versus non-viral pathogens: Plasmodium f.; format: cell-based
Mycobacterium b. = test: Specificity versus non-viral pathogens: Mycobacterium b.; format: cell-based
HIV strain A (Y181C) = test: Antiviral cellular assay, mutant strain A; format: cell-based
Procedure: as §1, §3

in vitro = format: cell-based; details: human
Procedure: as §1, with “The toxicity of the compound was measured on the mock-infected cells and was expressed as CC50, which represents the concentration of compound required to inhibit the growth of the cells by 50%. The selectivity index (SI) (ratio CC50/EC50) is an indication of the selectivity of the anti-HIV activity of the inhibitor.” left out
as §2

[8] = test system: HIV strain G (V106A, F227L); test: Antiviral cellular assay, mutant strain G; format: cell-based
Procedure: as §1, §3

HIV strain F (Y188L) = test: Antiviral cellular assay, mutant strain F; format: cell-based
Procedure: as §1, §3

[9] = test system: HIV strain H (K103N, Y181C); test: Antiviral cellular assay, mutant strain H; format: cell-based
Procedure: as §1, §3

[10] = test system: HIV strain D (L100I;K103N); test: Antiviral cellular assay, mutant strain D; format: cell-based
Procedure: as §1, §3

[11] = Human immunodeficiency virus 1, MT4, read-out: EC50 value, wild-type HIV-LAI strain
[12] = EC50 mutant / EC50 wild type, rounded to nearest integer

CCn1c2ccccc2c2c1cc(C#N)c(=O)n2-c1ccc([N+](=O)[O-])cc1 [Compound 9]
EC50 [1, 11]: < 1 µM

Cn1c2ccccc2c2c1cc(C#N)c(=O)n2-c1ccc(-c2ccco2)cc1 [Compound 48]
EC50 [1, 11]: 1 to 32 µM

Cn1c2ccccc2c2c1cc(Br)c(=O)n2-c1ccc([N+](=O)[O-])cc1 [Compound 68]
EC50 [1, 11]: < 1 µM

Cn1c2ccccc2c2c1cc(C#N)c(=O)n2-c1cccc([N+](=O)[O-])c1 [Compound 43]
EC50 [1, 11]: < 1 µM

Cn1c2ccccc2c2c1ccc(=O)n2-c1ccc(C(N)=O)cc1 [Compound 98]
EC50 [1, 11]: 1 to 32 µM

Cn1c2ccccc2c2c1cc(Cl)c(=O)n2-c1ccc(C(=O)O)cc1 [Compound 87]
EC50 [1, 11]: 1 to 32 µM

N#Cc1ccc(-n2c(=O)c(C#N)cc3[nH]c4ccccc4c32)cc1 [Compound 45]
EC50 [1, 11]: > 32 µM

Cn1c2ccccc2c2c1cc(C#N)c(=O)n2-c1ccc([N+](=O)[O-])cc1 [Compound 2, 5-methyl-1-(4-nitro-phenyl)-2-oxo-2,5-dihydro-1H-pyrido[3,2-b]indole-3-carbonitrile]
EC50 (Trypanosoma c.): > 32 µM | EC50 (HIV-2): 0.251 µM | fold resistance, mutant C [2, 12]: (3) | EC50 ([2]; Human immunodeficiency virus 1, read-out: pEC50 towards mutant C (converted)): 0.0794 µM | inhibition of HIV reverse transcriptase in vitro [3]: inhibits HIV reverse transcriptase in vitro | EC50 ([1]; Human immunodeficiency virus 1, MT4, read-out: EC50 value for wild-type HIV): < 0.1 µM | EC50 ([1]; Human immunodeficiency virus 1, WT, MT4 cells, read-out: pEC50 against wild type HIV-LAI strain (converted)): 0.0251 µM | fold resistance, mutant B (HIV strain B (K103N); [12]): (1) | EC50 (HIV strain B (K103N); Human immunodeficiency virus 1, read-out: pEC50 towards mutant B (converted)): 0.0316 µM | fold resistance, mutant K [4, 12]: (4) | EC50 ([4]; Human immunodeficiency virus 1, read-out: pEC50 towards mutant K (converted)): 0.1 µM | EC50 (Trypanosoma b.): > 32 µM | fold resistance, mutant E (HIV strain E (F227C); [12]): (3) | EC50 (HIV strain E (F227C); Human immunodeficiency virus 1, read-out: pEC50 towards mutant E (converted)): 0.0631 µM | fold resistance, mutant I [5, 12]: (3) | EC50 ([5]; Human immunodeficiency virus 1, read-out: pEC50 towards mutant I (converted)): 0.0631 µM | EC50 [6]: 0.316 µM | fold resistance, mutant J [7, 12]: (5) | EC50 ([7]; Human immunodeficiency virus 1, read-out: pEC50 towards mutant J (converted)): 0.126 µM | EC50 (Plasmodium f.): > 32 µM | EC50 (Mycobacterium b.): > 32 µM | fold resistance, mutant A (HIV strain A (Y181C); [12]): (4) | EC50 (HIV strain A (Y181C); Human immunodeficiency virus 1, read-out: pEC50 towards mutant A (converted)): 0.1 µM | CC50 at 5 days (in vitro): > 32.4 µM | fold resistance, mutant G [8, 12]: (3) | EC50 ([8]; Human immunodeficiency virus 1, read-out: pEC50 towards mutant G (converted)): 0.0631 µM | fold resistance, mutant F (HIV strain F (Y188L); [12]): (2) | EC50 (HIV strain F (Y188L); Human immunodeficiency virus 1, read-out: pEC50 towards mutant F (converted)): 0.0398 µM | fold resistance, mutant H [9, 12]: (5) | EC50 ([9]; Human immunodeficiency virus 1, read-out: pEC50 towards mutant H (converted)): 0.126 µM | fold resistance, mutant D [10, 12]: (2) | EC50 ([10]; Human immunodeficiency virus 1, read-out: pEC50 towards mutant D (converted)): 0.0501 µM

Cn1c2ccccc2c2c1cc(C#N)c(=O)n2-c1ccc(Br)cc1 [Compound 39]
EC50 [1, 11]: 1 to 32 µM

N#Cc1cc2c(c3ccccc3n2C2CCCC2)n(-c2ccc([N+](=O)[O-])cc2)c1=O [Compound 10]
EC50 [1, 11]: 1 to 32 µM

N#Cc1cc2[nH]c3ccccc3c2n(-c2ccc(F)c([N+](=O)[O-])c2)c1=O [Compound 41]
EC50 [1, 11]: 1 to 32 µM

Cn1c2ccccc2c2c1ccc(=O)n2-c1ccc(C(=O)O)cc1 [Compound 99]
EC50 [1, 11]: 1 to 32 µM

CCCCn1c2ccccc2c2c1cc(C#N)c(=O)n2-c1ccc([N+](=O)[O-])cc1 [Compound 8]
EC50 [1, 11]: < 1 µM

N#Cc1cc2[nH]c3ccccc3c2n(-c2cccc([N+](=O)[O-])c2)c1=O [Compound 42]
EC50 [1, 11]: 1 to 32 µM

Cn1c2ccccc2c2c1ccc(=O)n2-c1ccc(C#N)cc1 [Compound 96]
EC50 [1, 11]: 1 to 32 µM
